Molecular target: T1, human full-length recombinant PKC βII (Homo sapiens, UniProt P05771)
T1 construct: Active human full-length recombinant PKC βII; purchased Invitrogen GmbH, Darmstadt, Germany
Experiment: Determination of PKC βII inhibition (Caliper mobility-shift kinase assay, Fluorescein-RFARKGSLRQKNV peptide substrate)
Assay type: biochemical
Conditions: example compounds at a final concentration of 1.14 μM (±0.15 μM)
How it was run: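 Full-length PKC βII (30 ng/ml in pre-dilution) with PS/DAG/Ca2+ activators, pH 7.4; fluorescein peptide and ATP at 3 μM and 120 μM before mixing. Reaction ran 60 min at 32 °C, was EDTA-stopped, and was read by mobility shift. % inhibition came from product/(substrate+product) peak heights, tested at 1.14 μM final.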

T1 sequence (P05771 1-673 isoform P05771-2): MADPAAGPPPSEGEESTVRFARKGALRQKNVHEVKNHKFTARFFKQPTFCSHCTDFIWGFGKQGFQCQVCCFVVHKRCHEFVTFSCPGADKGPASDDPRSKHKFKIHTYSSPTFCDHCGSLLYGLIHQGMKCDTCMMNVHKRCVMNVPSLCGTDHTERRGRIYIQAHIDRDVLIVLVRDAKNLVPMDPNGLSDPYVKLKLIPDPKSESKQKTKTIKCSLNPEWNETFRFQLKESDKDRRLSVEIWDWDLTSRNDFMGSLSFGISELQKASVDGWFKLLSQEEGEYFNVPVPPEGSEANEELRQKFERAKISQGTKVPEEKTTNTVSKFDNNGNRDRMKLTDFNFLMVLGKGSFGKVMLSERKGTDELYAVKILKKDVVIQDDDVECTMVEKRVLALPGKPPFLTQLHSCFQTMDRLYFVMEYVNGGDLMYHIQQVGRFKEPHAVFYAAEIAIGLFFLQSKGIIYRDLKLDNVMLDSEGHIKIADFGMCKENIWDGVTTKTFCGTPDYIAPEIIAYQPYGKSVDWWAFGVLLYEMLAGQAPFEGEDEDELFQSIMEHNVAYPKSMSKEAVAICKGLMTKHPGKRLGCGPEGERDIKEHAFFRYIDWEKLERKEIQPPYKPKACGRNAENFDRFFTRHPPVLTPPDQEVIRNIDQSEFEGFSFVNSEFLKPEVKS

| Structure (SMILES) | inhibition at 1.14 µM |
| --- | --- |
| CCN1CCCN(C(=O)c2cc(-c3ccc(O)cc3)nc3[nH]nc(C)c23)CC1 [Example 281, (4-Ethyl-[1,4]diazepan-1-yl)-[6-(4-hydroxy-phenyl)-3-methyl-1H-pyrazolo[3,4-b]pyridin-4-yl]-methanone] | 85% |
| COC[C@H]1CN(C(=O)c2cc(-c3ccc(O)cc3)nc3[nH]nc(C)c23)CCN1 [Example 212, [6-(4-Hydroxy-phenyl)-3-methyl-1H-pyrazolo[3,4-b]pyridin-4-yl]-((R)-3-methoxymethyl-piperazin-1-yl)-methanone] | 94% |
| CCC1(NC(=O)c2cc(-c3ccc(O)cc3)nc3[nH]nc(C)c23)CCNCC1 [Example 49, 6-(4-Hydroxy-phenyl)-3-methyl-1H-pyrazolo[3,4-b]pyridine-4-carboxylic acid (4-ethyl-piperidin-4-yl)-amide] | 97% |
| Cc1n[nH]c2nc(-c3ccc(O)cc3)cc(C(=O)N3C[C@H]4CC[C@@H](C3)C4N)c12 (stereo partly shown) [Example 227, (8-Amino-3-aza-bicyclo[3.2.1]oct-3-yl)-[6-(4-hydroxy-phenyl)-3-methyl-1H-pyrazolo[3,4-b]pyridin-4-yl]-methanone] | 100% |
| CO[C@H]1CNC[C@@H]1NC(=O)c1cc(-c2ccc(O)cc2)nc2[nH]nc(C)c12 (racemic) [Example 78, 6-(4-Hydroxy-phenyl)-3-methyl-1H-pyrazolo[3,4-b]pyridine-4-carboxylic acid ((trans)-4-methoxy-pyrrolidin-3-yl)-amide] | 99% |
| COC[C@H]1CN(C(=O)c2cc(-c3ccc(O)c(F)c3)nc3[nH]nc(C)c23)CCN1 [Example 298, [6-(3-Fluoro-4-hydroxy-phenyl)-3-methyl-1H-pyrazolo[3,4-b]pyridin-4-yl]-((R)-3-methoxymethyl-piperazin-1-yl)-methanone] | 68% |
| CCCC1(NC(=O)c2cc(-c3ccc(O)cc3)nc3[nH]nc(C)c23)CCNC1 (stereo not shown) [Example 125, 6-(4-Hydroxy-phenyl)-3-methyl-1H-pyrazolo[3,4-b]pyridine-4-carboxylic acid (3-propyl-pyrrolidin-3-yl)-amide] | 52% |
| Cc1n[nH]c2nc(-c3ccc(O)cc3)cc(C(=O)N3CCNCC3c3ccc(Cl)cc3)c12 (stereo not shown) [Example 378, [2-(4-Chloro-phenyl)-piperazin-1-yl]-[6-(4-hydroxy-phenyl)-3-methyl-1H-pyrazolo[3,4-b]pyridin-4-yl]-methanone] | 87% |
| COc1ccc(C(CNC(=O)c2cc(-c3ccc(O)cc3)nc3[nH]nc(C)c23)N(C)C)cc1 (stereo not shown) [Example 376, 6-(4-Hydroxy-phenyl)-3-methyl-1H-pyrazolo[3,4-b]pyridine-4-carboxylic acid [2-dimethylamino-2-(4-methoxy-phenyl)-ethyl]-amide] | 64% |
| Cc1n[nH]c2nc(-c3ccc(O)c(F)c3)cc(C(=O)N3CCNC[C@H]3C(=O)NC(C)(C)C)c12 [Example 325, (S)-1-[6-(3-Fluoro-4-hydroxy-phenyl)-3-methyl-1H-pyrazolo[3,4-b]pyridine-4-carbonyl]-piperazine-2-carboxylic acid tert-butylamide] | 76% |
| O=C(N[C@@H]1CN2CCC1CC2)c1cc(-c2ccc(O)cc2)nc2[nH]nc(C(F)(F)F)c12 [Example 412, 6-(4-Hydroxy-phenyl)-3-trifluoromethyl-1H-pyrazolo[3,4-b]pyridine-4-carboxylic acid [(S)-1-aza-bicyclo[2.2.2]oct-3-yl]-amide] | 23% |
| Cc1n[nH]c2nc(-c3ccc(O)cc3)cc(C(=O)N3CCNCC3c3cccc(F)c3)c12 (stereo not shown) [Example 91, [2-(3-Fluoro-phenyl)-piperazin-1-yl]-[6-(4-hydroxy-phenyl)-3-methyl-1H-pyrazolo[3,4-b]pyridin-4-yl]-methanone] | 93% |
| Cc1n[nH]c2nc(-c3ccc(O)c(F)c3)cc(C(=O)N3CC4CCCN4CC3c3ccccc3)c12 (stereo not shown) [Example 369, [6-(3-Fluoro-4-hydroxy-phenyl)-3-methyl-1H-pyrazolo[3,4-b]pyridin-4-yl]-(3-phenyl-hexahydro-pyrrolo[1,2-a]pyrazin-2-yl)-methanone] | 34% |

Reference: patent US8686150B2 (Sanofi, priority 2011, dated 2014)
